According to US4616025A, “Thiazolidine derivatives, process for the preparation and pharmaceutical compositions thereof” (Richter Gedeon Vegyeszeti Gyar RT, priority 1983, dated 1986):
Entries after “also recorded” stand apart in the source; their conditions may differ.

Legend:
[1] = test system: indomethacin-induced intestinal ulceration; experiment: Indomethacin-induced fatal intestinal ulceration (15 mg/kg p.o.), inflation technique; format: in vivo, rat (female H-Wistar)
Experimental: Indomethacin-induced intestinal ulceration
Of the non-steroidal antiinflammatory agents indomethacin has not only a gastric-ulcer inducing side-effect but may also cause serious intestinal ulceration. Depending on the dose, the intestinal ulceration may be fatal, peritonitis due to intestinal perforations kills the animals.
(a) Indomethacin-induced fatal intestinal ulceration
Non-fasted, female H-Winstar rats, weighing 120-150 g each were treated orally with a 15 mg/kg dose of indomethacin (in Tween 80 suspension). […] Under these conditions it requires about 48 to 72 hours to detect intenstinal ulceration.
(§1) To evaluate the development of intestinal ulcers the so-called inflation technique by Ezer and Szporny (J. Pharm. Pharmacol. 27, 866 (1975)) was employed. By this method the progress of ulceration can be monitored quantitatively. The tensile strength of the intestinal wall expressed in mmHg weakens gradually parallel with the progress of ulceration.

ulcer = experiment: Anti-ulcer activity in general (pharmacological tests); format: in vivo; details: compared with cimetidine
Source text: The pharmacological activity of the new compounds has been investigated by the following methods: […]

gastric acid secretion = experiment: Gastric acid secretion in Shay-rats (pylorus ligation, 4 hours); format: in vivo, rat (female H-Wistar)
Experimental: The method was first described by Shay et al in 1945 (Gastroenterology 56, 5-13, 1945). Female H-Wistar rats (120-150 g) were gasted for 24 hours. Water was allowed ad libitum. The pylorus of the animals was ligated in slight ether narcosis. […] 4 hours after treatment the animals were killed by an overdose of ether. The stomach was excised and cut along the large curvature. The volume and the pH of the contents were determined, in certain cases the HCl production was determined by titration.

Toxicological studies = experiment: Toxicological studies
Experimental: For intravenous administration the compound was dissolved in dimethyl formamide.

[2] = test system: indomethacin-induced non-fatal intestinal ulceration; experiment: Indomethacin-induced (7.5 mg/kg p.o.) non-fatal intestinal ulceration, post-treatment, inflation technique; format: in vivo, rat (H-Wistar); details: for Non-fatal intestinal ulceration post-treatment, in words: post-treatment 4, 24 and 48 hours after indomethacin 7.5 mg/kg p.o.
Experimental: as §1
(b) Indomethacin-induced non-fatal ulceration
Non-fasted H-Wistar rats weighing 120 to 150 g each were administered 7.5 mg/kg indomethacin orally, to induce non-fatal intestinal ulceration. 4, 24 and 48 hours, respectively, after the indomethacin treatment the animals were treated with the test material orally. The animals were killed 24 hours after the last treatment and 72 hours after the ulcer-induction performed with indomethacin, respectively. Ulceration was evaluated by the inflation technique.

[3] = test system: gastric necrosis induced by absolute alcohol; experiment: Gastric necrosis induced by absolute alcohol (cytoprotection); format: in vivo, rat (female H-Wistar)
Experimental: Gastric necrosis induced by absolute alcohol
Water was allowed ad libitum. The compounds to be tested were administered orally, 30 minutes prior to the administration of 0.5 ml of ethanol/100 g of body weight through a canula. Two hours later the animals were killed by overdosing ether. Stomachs were removed and opened along the major curvature. […] Degree of the cytoprotection was expressed in % related to the control.

[4] = test system: aspirin-induced gastric ulcers; experiment: Aspirin-induced stomach ulcer; format: in vivo, rat (female H-Wistar)
Experimental: It is known that the non-steroidal antiinflammatory agents induce gastointestinal ulceration to certain extent (Drugs and Peptic Ulcer, Ed. Pfeiffer, CRC Press, New York 1982). To test anti-ulcer compounds the so-called Aspirin-induced ulcer model is widely used. Female H-Wistar rats weighing 120-150 g each were fasted for 24 hours. Water was allowed ad libitum. The stomach ulcer was induced by oral administration of 100 mg/kg Aspirin (in Tween 80 suspension). The test drug was given simultaneously with the administration of Aspirin, orally. The animals were killed by an overdose of ether, 4 hours after treatment. The stomach was excised and cut along the large curvature. The contents were slightly washed and the haemorrhagic lesions in the glandular surface were counted. When evaluating the test results, the number of ulcers per stomach or the ulcer-free animals were determined.

[5] = test system: gastric ulcers induced by indomethacin; experiment: Gastric ulcers induced by a 20 mg/kg oral dose of indomethacin; format: in vivo; details: 20 mg/kg oral dose of indomethacin
[6] = test system: intestinal ulceration induced by indomethacin; details: literature; cited from earlier work
ulceration = details: rheumatic patients simultaneously suffering from ulceration; cited from earlier work
[7] = indomethacin 15 + 15 mg/kg p.o.
[8] = indomethacin 15 + 25 mg/kg p.o.
[9] = indomethacin 15 + 50 mg/kg p.o.
[10] = 10 mg/kg i.p., 15 min. prior to operation, n=5
[11] = 10 mg/kg s.c., 15 min prior to operation, n=5
[12] = 10 mg/kg, 15 min prior to operation, n=5
[13] = 7.5 + 3 × 50 mg/kg p.o., 4, 24, 48 hours after indomethacin
[14] = Aspirin 100 + 1.5 mg/kg p.o., n=10
[15] = Aspirin 100 + 3.0 mg/kg p.o., n=17
[16] = Aspirin 100 + 6.0 mg/kg p.o., n=17
[17] = Aspirin 100 + 12.0 mg/kg p.o., n=14
[18] = Aspirin 100 + 25.0 mg/kg p.o., n=17
[19] = indomethacin 15 + 150 mg/kg p.o.

N#CN=C1SCCN1Cc1ccccc1 [Compound A, 3-Benzyl-2-cyanimino-thiazolidine]
ED100 ([1]; Rattus norvegicus, po, simultaneous with indomethacin 15 mg/kg, read-out: ED100): 50 mg/kg | Intestinal wall resistency in % of normal [1, 7]: 52 % of normal | T.s. of intestinal wall 72 hours after treatment [1, 7]: 120 ± 20 mm Hg | Intestinal wall resistency in % of normal [1, 8]: 83 % of normal | T.s. of intestinal wall 72 hours after treatment [1, 8]: 192 ± 18 mm Hg | Intestinal wall resistency in % of normal [1, 9]: 97 % of normal | T.s. of intestinal wall 72 hours after treatment [1, 9]: 225 ± 6 mm Hg | Indomethacin-induced intestinal ulceration, in words ([1]; simultaneous administration, indomethacin 15 mg/kg p.o.): dose-dependent inhibiting effect; also recorded: inhibits the indomethacin-induced intestinal ulceration | Solubility in water (Solubility in water): insoluble in water | Spectrum of activity, in words (ulcer): wider spectrum of activity than for example cimetidine | Acid secretion (gastric acid secretion; 1.25 mg/kg i.p., n=5): 436 μmol HCl/100 g b.w. | Acid secretion (gastric acid secretion; 2.5 mg/kg i.p., n=10): 358 μmol HCl/100 g b.w. | Inhibition of acid secretion (gastric acid secretion; 2.5 mg/kg i.p., n=10): 17% | Acid secretion (gastric acid secretion; 5.0 mg/kg i.p., n=10): 301 μmol HCl/100 g b.w. | Inhibition of acid secretion (gastric acid secretion; 5.0 mg/kg i.p., n=10): 30% | Gastric acid secretion (volume) (gastric acid secretion; [10]): 2.5 ml/100 g, b.w. | Gastric acid secretion, pH (gastric acid secretion; [10]): 3.7 | Gastric acid secretion, vol. inhibition (gastric acid secretion; [10]): 42% | Inhibition of acid secretion (gastric acid secretion; 10.0 mg/kg i.p., n=20): 100% | Gastric acid secretion (volume) (gastric acid secretion; [11]): 2.8 ml/100 g, b.w. | Gastric acid secretion, pH (gastric acid secretion; [11]): 1.5 | Gastric acid secretion, vol. inhibition (gastric acid secretion; [11]): 35% | Gastric acid secretion (volume) (gastric acid secretion; [12]): 2.3 ml/100 g, b.w. | Gastric acid secretion, pH (gastric acid secretion; [12]): 4.1 | Gastric acid secretion, vol. inhibition (gastric acid secretion; [12]): 47% | Inhibition of acid secretion (gastric acid secretion; 25.0 mg/kg i.p., n=5): 100% | ED50 (gastric acid secretion; Rattus norvegicus, ip, 4 h, i.p., Shay rats, read-out: ED50, gastric acid secretion inhibition): 5.3 mg/kg | Gastric acid secretion decreasing effect, in words (gastric acid secretion; Table 1, i.p.): dose-dependent gastric acid secretion decreasing effect | Gastric acid secretion inhibition on oral administration, in words (gastric acid secretion; administered orally): effectively inhibits the gastric acid secretion also when administered orally | Oral absorption (gastric acid secretion; comparison of i.p., s.c. and p.o. data): good oral absorption | Sickness / death (Toxicological studies; 100 mg/kg, route not given, within 3 days): sickness of the test animals but no death occurs | Death (Toxicological studies; 250 mg/kg, within 2 weeks): no death is observed | Time to death of the animals (Toxicological studies; 1500 mg/kg i.p.): ≤ 30 min | Behavior and food consumption of animals (Toxicological studies; 1500 mg/kg oral): normal | Further deaths (Toxicological studies; 1500 mg/kg oral, in the next week): no further deaths are observed | Death of animals within 24 hours (Toxicological studies; 1500 mg/kg oral, within 24 hours): 3 animals out of 10 | Therapeutic index (Toxicological studies; first toxicological studies): high therapeutic index | T.s. of intestinal wall 72 hours after indomethacin treatment ([2]; 7.5 + 3 × 25 mg/kg p.o., 4, 24, 48 hours after indomethacin): 176 ± 20 mm Hg | T.s. of intestinal wall 72 hours after indomethacin treatment [2, 13]: 249 ± 4 mm Hg | Non-fatal intestinal ulceration post-treatment, in words [2]: can normalize the tensile strength of the intestine wall | Cytoprotection ([3]; 1.5 mg/kg p.o.): 37% | Length of average lesion ([3]; 1.5 mg/kg p.o.): 52.5 ± 19 mm/stomach | Cytoprotection ([3]; 3.0 mg/kg p.o.): 58% | Length of average lesion ([3]; 3.0 mg/kg p.o.): 34.8 ± 10 mm/stomach | Cytoprotection ([3]; 6.0 mg/kg p.o.): 64% | Length of average lesion ([3]; 6.0 mg/kg p.o.): 29.9 ± 9 mm/stomach | Cytoprotection ([3]; 12.0 mg/kg p.o.): 60% | Length of average lesion ([3]; 12.0 mg/kg p.o.): 32.9 ± 5 mm/stomach | Cytoprotection ([3]; 25.0 mg/kg p.o.): 78% | Length of average lesion ([3]; 25.0 mg/kg p.o.): 18.0 ± 8 mm/stomach | ED50 ([3]; Rattus norvegicus, po, 30 minutes prior to ethanol): 2.8 mg/kg | Absolute alcohol-induced gastric necrosis, in words ([3]; rat, in vivo): effective against the gastric necrosis induced by absolute alochol; also recorded: effective also in the absolute alcohol necrosis test | Number of ulcers/stomach [4, 14]: 9.5 | Ulcer inhibition [4, 14]: 40% | Ulcer-free animals [4, 14]: 0% | Number of ulcers/stomach [4, 15]: 6.8 | Ulcer inhibition [4, 15]: 57% | Ulcer-free animals [4, 15]: 23% | Number of ulcers/stomach [4, 16]: 4.7 | Ulcer inhibition [4, 16]: 71% | Ulcer-free animals [4, 16]: 29% | Number of ulcers/stomach [4, 17]: 2.2 | Ulcer inhibition [4, 17]: 86% | Ulcer-free animals [4, 17]: 66% | Number of ulcers/stomach [4, 18]: 2.3 | Ulcer inhibition [4, 18]: 85% | Ulcer-free animals [4, 18]: 41% | ED50 ([4]; Rattus norvegicus, po, 4 h, simultaneous administration): 2.1 mg/kg | Aspirin-induced gastric ulceration, in words ([4]; simultaneous administration, depending on the dose): inhibits the formation of the aspirin-induced gastric ulceration | Indomethacin-induced gastric ulcers, in words [5]: effectively inhibited

CN/C(=N/CCSCc1nc[nH]c1C)NC#N [Cimetidine, N-cyano-N'-methyl-N"-2-[(5-methyl-imidazole-4-yl)-methylthio]-ethyl-guanidine, reference compound]
Intestinal wall resistency in % of normal [1, 19]: 21 % of normal | T.s. of intestinal wall 72 hours after treatment [1, 19]: 47 ± 25 mm Hg | T.s. of intestinal wall 72 hours after indomethacin treatment [2, 13]: 184 ± 7 mm Hg | T.s. of intestinal wall 72 hours after indomethacin treatment ([2]; 7.5 + 3 × 100 mg/kg p.o., 4, 24, 48 hours after indomethacin): 197 ± 10 mm Hg | Non-fatal intestinal ulceration post-treatment, in words [2]: ineffective | Indomethacin-induced intestinal ulceration, in words [6]: cannot inhibit intestinal ulceration induced by indomethacin | Cytoprotection ([3]; 6.0 mg/kg p.o.): 44% | Length of average lesion ([3]; 6.0 mg/kg p.o.): 46.0 ± 10 mm/stomach | Cytoprotection ([3]; 12.0 mg/kg p.o.): 24% | Length of average lesion ([3]; 12.0 mg/kg p.o.): 63.0 ± 18 mm/stomach | Cytoprotection ([3]; 25.0 mg/kg p.o.): 33% | Length of average lesion ([3]; 25.0 mg/kg p.o.): 55.0 ± 12 mm/stomach | Cytoprotection ([3]; 50.0 mg/kg p.o.): 59% | Length of average lesion ([3]; 50.0 mg/kg p.o.): 34.0 ± 10 mm/stomach | Cytoprotection ([3]; 100.0 mg/kg p.o.): 43% | Length of average lesion ([3]; 100.0 mg/kg p.o.): 47.0 ± 16 mm/stomach | Outcome of simultaneous administration of cimetidine and indomethacin (ulceration): perforation in rheumatic patients
